Among the data in patent publication US20160046616A1, “NRF2 SMALL MOLECULE INHIBITORS FOR CANCER THERAPY” (THE JOHNS HOPKINS UNIVERSITY, priority 2013, published 2016) are IC50 values, retold here.

Molecules are shown by their SMILES. Read-outs that look alike come from different tables or passages of the source.

Experiment [1] deals with H1437 NRF2-ARE-Fluc stable cell line. The experiment can be described thus: H1437 Nrf2 assay: NRF2-ARE firefly luciferase reporter gene assay. Format: cell-based. The conditions noted are these: read-out: Potency of inhibition, H1437. In general terms: A reporter such as luciferase makes a cellular process visible.
Experiment [2] deals with A549 NRF2-ARE-Fluc stable cell line. The experiment can be described thus: A549 Nrf2 assay: NRF2-ARE firefly luciferase reporter gene assay. Format: cell-based. The conditions noted are these: read-out: Potency of inhibition, A549. A digest of the protocol:
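A549 cells (Keap1 loss-of-function, constitutive NRF2) stably carrying ARE-driven firefly luciferase; compound treatment 18–24 h at 37 °C, 0.46% DMSO final.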

Where [3] appears, read: Homo sapiens, NCI-H1437, H1437 NRF2-ARE-Fluc stable cell line.

In the case of `Cc1ccccc1C(=O)N1CCc2cc(-c3nc(NC(=O)Cc4ccc(OCCOCCOCCNC(=O)OC(C)(C)C)cc4)sc3C)ccc21` [Compound 236, tert-butyl (2-(2-(2-(4-(2-((5-methyl-4-(1-(2-methylbenzoyl)indolin-5-yl)thiazol-2-yl)amino)-2-oxoethyl)phenoxy)ethoxy)ethoxy)ethyl)carbamate], the IC50 in experiment [1] (setting [3]) and in experiment [2] (Homo sapiens) was less than 5 µM throughout.
Take `Cc1ccccc1C(=O)n1ccc2cc(-c3cccc(NC(=O)Cc4ccccc4)n3)cnc21` [Compound 76]: the IC50 in experiment [1] (setting [3]) was more than 25 µM; in experiment [2] (Homo sapiens) it was 5 to 25 µM.
As for `Cc1ccccc1C(=O)N1CCc2cc(-c3cccc(NC(=O)Cc4ccc5c(c4)OCO5)c3)ccc21` [Compound 31], the IC50 was more than 25 µM in experiment [1] (setting [3]) and 5 to 25 µM in experiment [2] (Homo sapiens).
As for `CCN(C1CCCCC1)S(=O)(=O)c1ccc(S(=O)(=O)NCc2ccncc2)cc1` [Compound 33], the IC50 is less than 5 µM in experiment [1] (setting [3]) and 5 to 25 µM in experiment [2] (Homo sapiens).
Consider `Cc1ccc(C(=O)N2CCc3cc(-c4nc(NC(=O)Cc5ccc6c(c5)OCO6)sc4C)ccc32)cc1` [Compound 23], for which the IC50 in experiment [1] (setting [3]) was more than 25 µM; in experiment [2] (Homo sapiens) it was 5 to 25 µM.
Take `Cc1ccccc1C(=O)N1CCc2cc(-c3nc(NC(=O)CC4CCCCC4)sc3C)ccc21` [Compound 79]: the IC50 was 5 to 25 µM in experiment [1] (setting [3]) and less than 5 µM in experiment [2] (Homo sapiens).
On to `O=C(Nc1cc(Cc2ccccc2)ccn1)c1ccc(-c2cccc([N+](=O)[O-])c2)o1` [Compound 150], for which the IC50 in experiment [1] (setting [3]) is more than 25 µM; in experiment [2] (Homo sapiens), less than 5 µM.
With `O=C(Nc1ncc(Cc2ccc(C(F)(F)F)cc2)s1)c1cnc(-c2ccccc2)s1` [Compound 99], the IC50 in experiment [1] (setting [3]) is more than 25 µM; in experiment [2] (Homo sapiens), 5 to 25 µM.
With `CN(C)[S+](=O)([O-])c1ccc(NC(=O)c2ccc(CN3CCc4ccccc4C3)cc2)cc1` [compound 148], the IC50 in experiment [1] (setting [3]) was more than 25 µM; in experiment [2] (Homo sapiens) it was less than 5 µM.
Turning to `O=C(Nc1ccc(S(=O)(=O)N2CCCCC2)cc1)c1ccc(CN2CCc3ccccc3C2)cc1` [Compound 38], the IC50 in experiment [1] (setting [3]) and in experiment [2] (Homo sapiens) was less than 5 µM each time.
As to `CC1(C)CC2CC(C)(CN2S(=O)(=O)c2ccc(C(=O)Nc3cccc(S(=O)(=O)N4CCOCC4)c3)cc2)C1` (stereo not shown) [compound 52], the IC50 in experiment [1] (setting [3]) and in experiment [2] (Homo sapiens) was less than 5 µM throughout.
On to `COc1ccc(CC(=O)Nc2nc(-c3ccc4c(c3)CCN4C(=O)c3ccccc3C)c(C)s2)cc1` [Compound 7], for which the IC50 in experiment [1] (setting [3]) and in experiment [2] (Homo sapiens) was less than 5 µM throughout.
`Cc1ccc(NC(=O)COc2ccccc2C(N)=O)cc1S(=O)(=O)N1CCCCCC1` [Compound 45]: the IC50 in experiment [1] (setting [3]) and in experiment [2] (Homo sapiens) was less than 5 µM throughout.
Regarding `O=C(Cc1ccccc1)Nc1ccc(Cl)nc1` [Compound 106, N-(6-chloropyridin-3-yl)-2-phenylacetamide], the IC50 in experiment [1] (setting [3]) and in experiment [2] (Homo sapiens) was more than 25 µM in each case.
Take `O=C(Cc1ccccc1)Nc1cccc(-c2ccc3[nH]c(-c4ccccc4)nc3c2)n1` [Compound 92]: the IC50 is more than 25 µM in experiment [1] (setting [3]) and 5 to 25 µM in experiment [2] (Homo sapiens).
Take `CC(=O)N1CCN(Cc2ccc(C(=O)Nc3ccc(S(=O)(=O)N4CCOCC4)cc3)cc2)CC1` [Compound 201]: the IC50 in experiment [1] (setting [3]) and in experiment [2] (Homo sapiens) was 5 to 25 µM throughout.
In the case of `Cc1ccccc1S(=O)(=O)N1CCc2cc(-c3nc(NC(=O)Cc4ccccn4)sc3C)ccc21` [Compound 127], the IC50 in experiment [1] (setting [3]) and in experiment [2] (Homo sapiens) was 5 to 25 µM throughout.
In the case of `O=C(Nc1ccc(Cl)c(S(=O)(=O)N2CCOCC2)c1)c1ccc(S(=O)(=O)N2CCCCC2)cc1` [compound 54], the IC50 in experiment [1] (setting [3]) and in experiment [2] (Homo sapiens) was less than 5 µM each time.
For the compound `Cc1ccccc1C(=O)Nc1ccc(-c2cccc(NC(=O)Cc3ccccc3)n2)cc1` [Compound 71], the IC50 in experiment [1] (setting [3]) is more than 25 µM; in experiment [2] (Homo sapiens), 5 to 25 µM.
Take `O=C(Nc1ncc(Cc2ccc(C(F)(F)F)cc2)s1)c1cccc(-c2ccccc2)n1` [Compound 61]: the IC50 in experiment [1] (setting [3]) is more than 25 µM; in experiment [2] (Homo sapiens) it was less than 5 µM.
As for `CN(Cc1ccccc1)Cc1ccc(C(=O)Nc2ccc(S(=O)(=O)N3CCOCC3)cc2)cc1` [compound 168], the IC50 in experiment [1] (setting [3]) and in experiment [2] (Homo sapiens) was less than 5 µM throughout.
In the case of `CN(C(=O)c1ccc(CN2CCc3ccccc3C2)cc1)c1ccc(S(=O)(=O)N2CCOCC2)cc1` [compound 225], the IC50 in experiment [1] (setting [3]) is more than 25 µM; in experiment [2] (Homo sapiens), 5 to 25 µM.
Regarding `CC(=O)N1CCc2cc(-c3nc(NC(=O)Cc4ccc5c(c4)OCO5)sc3C)ccc21` [Compound 21], the IC50 in experiment [1] (setting [3]) is 5 to 25 µM; in experiment [2] (Homo sapiens), less than 5 µM.
Consider `Cc1ccccc1C(=O)N1CCc2cc(-c3nc(NC(=O)Cc4ccccc4)sc3C)ccc21` [Compound 8], for which the IC50 in experiment [1] (setting [3]) and in experiment [2] (Homo sapiens) was less than 5 µM in each case.
For the compound `COc1ccc(CC(=O)Nc2nc(-c3ccc4c(c3)CCN4C(=O)C3CC3C)c(C)s2)cc1` (stereo not shown) [Compound 208], the IC50 in experiment [1] (setting [3]) and in experiment [2] (Homo sapiens) was less than 5 µM in each case.
As for `Cc1ccccc1C(=O)N1CCc2cc(-c3nc(NC(=O)CC4CCN(C)CC4)sc3C)ccc21` [Compound 75], the IC50 in experiment [1] (setting [3]) and in experiment [2] (Homo sapiens) was 5 to 25 µM in each case.
As to `O=C(Nc1ncc(Cc2ccccc2)s1)c1ccc(-c2cccc([N+](=O)[O-])c2)o1` [Compound 16], the IC50 in experiment [1] (setting [3]) and in experiment [2] (Homo sapiens) was 5 to 25 µM in each case.
On to `Cc1sc(NC(=O)Cc2ccc3c(c2)OCO3)nc1-c1ccc2c(c1)CCN2C(=O)c1ccccc1` [Compound 14], for which the IC50 is 5 to 25 µM in experiment [1] (H1437 NRF2-ARE-Fluc stable cell line) and less than 5 µM in experiment [2].
Take `Cc1ccccc1C(=O)N1CCc2cc(-n3cc(NC(=O)Cc4ccccc4)cn3)ccc21` [Compound 100]: the IC50 in experiment [1] (setting [3]) and in experiment [2] (Homo sapiens) was 5 to 25 µM each time.
For `Cc1ccc(CC(=O)Nc2nc(-c3ccc4c(c3)CCN4S(=O)(=O)c3ccccc3C)c(C)s2)cc1` [Compound 133], the figures for the IC50 in experiment [1] (setting [3]) and in experiment [2] (Homo sapiens) were more than 25 µM and less than 5 µM, respectively.
As to `Cc1ccccc1C(=O)N1CCc2cc(-c3nc(NC(=O)CC4CCN(C(=O)OC(C)(C)C)CC4)sc3C)ccc21` [Compound 60, tert-butyl 4-(2-((5-methyl-4-(1-(2-methylbenzoyl)indolin-5-yl)thiazol-2-yl)amino)-2-oxoethyl)piperidine-1-carboxylate], the IC50 in experiment [1] (setting [3]) and in experiment [2] (Homo sapiens) was less than 5 µM each time.
As for `Cc1cc(C(=O)Nc2ncc(Cc3ccc(C(F)(F)F)cc3)s2)nn1CCN1CCOCC1` [Compound 194], the IC50 in experiment [1] (setting [3]) and in experiment [2] (Homo sapiens) was 5 to 25 µM each time.
`Cc1ccccc1C(=O)N1CCc2cc(-c3nc(NC(=O)Cc4ccc5c(c4)OCCO5)sc3C)ccc21` [Compound 5]: the IC50 in experiment [1] (setting [3]) was less than 5 µM; in experiment [2] (Homo sapiens) it was 5 to 25 µM.
On the same counts, the results for `O=C(Nc1ncc(Cc2ccc(C(F)(F)F)cc2)s1)c1cn(-c2ccccc2)cn1` [Compound 164] are more than 25 µM and less than 5 µM.
For `CC1CCCN(C(=O)c2ccc(S(=O)(=O)N3CCC(c4nc5ccccc5s4)CC3)cc2)C1` (stereo not shown) [Compound 36], the IC50 in experiment [1] (setting [3]) and in experiment [2] (Homo sapiens) was less than 5 µM in each case.
Consider `O=C(Nc1ncc(Cc2cccc(F)c2)s1)c1ccn(-c2ccccc2)n1` [Compound 218], for which the IC50 is less than 5 µM in experiment [1] (setting [3]) and 5 to 25 µM in experiment [2] (Homo sapiens).
In the case of `Cc1ccccc1Cc1cnc(NC(=O)c2ccn(-c3ccccc3)n2)s1` [Compound 214], the IC50 in experiment [1] (setting [3]) and in experiment [2] (Homo sapiens) was 5 to 25 µM in each case.
Consider `CC(=O)Nc1nc(-c2ccc3c(c2)CCN3C(=O)c2ccccc2C)c(C)s1` [Compound 11], for which the IC50 is less than 5 µM in experiment [1] (setting [3]) and 5 to 25 µM in experiment [2] (Homo sapiens).
On the same counts, the results for `Cc1ccc(Cc2cnc(NC(=O)c3ccn(-c4ccccc4)n3)s2)cc1` [Compound 221] are 5 to 25 µM and 5 to 25 µM.
`O=C(Nc1ccc(S(=O)(=O)N2CCOCC2)cc1)c1ccc(CN2CCCC(c3ccccc3)C2)cc1` (stereo not shown) [Compound 207]: the IC50 in experiment [1] (setting [3]) and in experiment [2] (Homo sapiens) was 5 to 25 µM each time.
For the compound `O=C(Nc1ncc(Cc2cccc(Cl)c2)s1)c1ccn(-c2ccccc2)n1` [Compound 220], the IC50 in experiment [1] (setting [3]) was less than 5 µM; in experiment [2] (Homo sapiens), 5 to 25 µM.
Turning to `O=C(Nc1ccc(S(=O)(=O)N2CCC(F)(F)CC2)cc1)c1ccc(CN2CCc3ccccc3C2)cc1` [compound 188], the IC50 in experiment [1] (setting [3]) and in experiment [2] (Homo sapiens) was less than 5 µM each time.
As to `Cc1cccc(C(=O)N2CCc3cc(-c4nc(NC(=O)Cc5ccc6c(c5)OCO6)sc4C)ccc32)c1` [Compound 29], the IC50 in experiment [1] (setting [3]) is 5 to 25 µM; in experiment [2] (Homo sapiens) it was more than 25 µM.
Consider `O=C(Nc1ncc(CN2CCOCC2)s1)c1ccc(-c2cccc([N+](=O)[O-])c2)o1` [Compound 81], for which the IC50 in experiment [1] (setting [3]) and in experiment [2] (Homo sapiens) was 5 to 25 µM each time.
In the case of `Cc1ccccc1C(=O)N1CCc2cc(N3CCC(N)C3)ccc21` (stereo not shown) [Compound 93, (5-(3-aminopyrrolidin-1-yl)indolin-1-yl)(o-tolyl)methanone], the IC50 is more than 25 µM in experiment [1] (setting [3]) and 5 to 25 µM in experiment [2] (Homo sapiens).
Regarding `Cc1ccccc1S(=O)(=O)N1CCc2cc(-c3nc(NC(=O)Cc4ccccc4F)sc3C)ccc21` [Compound 122], the IC50 in experiment [1] (setting [3]) and in experiment [2] (Homo sapiens) was less than 5 µM throughout.
Take `Cc1nc(C(=O)N2CCc3cc(-c4nc(NC(=O)Cc5ccc6c(c5)OCO6)sc4C)ccc32)c(C)o1` [Compound 157]: the IC50 in experiment [1] (setting [3]) and in experiment [2] (Homo sapiens) was less than 5 µM throughout.
As to `Cc1sc(NC(=O)Cc2ccc3c(c2)OCO3)nc1-c1ccc2c(c1)CCN2C(=O)c1cncn1C` [Compound 161], the IC50 in experiment [1] (setting [3]) and in experiment [2] (Homo sapiens) was less than 5 µM in each case.
For the compound `O=C(Nc1ccc(S(=O)(=O)N2CCOCC2)cc1)c1ccc(CN2CCN(c3ccccc3)CC2)cc1` [Compound 203], the IC50 in experiment [1] (setting [3]) and in experiment [2] (Homo sapiens) was less than 5 µM each time.
In the case of `Cc1nccc(Cn2ccc(C(=O)Nc3ncc(Cc4ccc(C(F)(F)F)cc4)s3)n2)n1` [Compound 190], the IC50 in experiment [1] (setting [3]) and in experiment [2] (Homo sapiens) was 5 to 25 µM in each case.
